From US20130302278A1, “USE OF TLR AGONISTS AND/OR TYPE 1 INTERFERONS TO ALLEVIATE TOXICITY OF TNF-R AGONIST THERAPEUTIC REGIMENS” (Immurx Inc., priority 2007, published 2013) come the findings set out here.

In series [1] the test system is TRP2-specific CD8^+ T cells. Nature of the series: Degranulation (CD107a) and expansion of CD8+ T cells in peripheral blood 7 days after immunization. The class given is in vivo, C57BL/6 mice. The conditions noted are these: 7 days after i.v. immunization, 100 μg each, groups given with V peptide. An excerpt:
Seven days later, mice were bled and cells were restimulated in vitro with TRP2(180-188) to assess the ability to produce IFN and translocate CD107a as described in “Methods.” Lymphocytes were identified by forward and side scatter and subsequently gated on all CD8^+ events. (A) Representative dot plots from vaccinated mice. The numbers in the upper right corners indicate the frequency of CD8^+ T cells that are positive for IFN and CD44 (top row) or IFN and CD107a (bottom row). (B) Percentage of peripheral blood lymphocytes expressing the CD8 antigen. P.001 by one-tailed ANOVA (C) Quantification of the percentages of CD8^+ cells that degranulated in response to peptide restimulation. In all cases, data presented are representative of at least 3 independent experiments. […] P.001 by one-tailed ANOVA.
Cells from lung, spleen, or peripheral blood (peripheral blood lymphocytes [PBLs]) were incubated with 1 μg/mL Ova(257-264) or TRP2(180-188) peptide plus 10 U/mL IL-2 and 3 μg/mL brefeldin A in complete medium at 37° C. for 5 to 18 hours. […] The percentage of IFN^+ cells was calculated by subtracting the background observed with the irrelevant peptide control.

The next series concerns memory CD8^+ T cells. Briefly: Memory CD8+ T-cell function (intracellular cytokine staining) 60+ days after vaccination. The class given is in vivo, mice. As to conditions: spleen and lung. How it is done: In the experiments depicted in FIG. 2, mice were immunized with 100 μg each of V peptide, CD40, and S-27609 in combinations as indicated. Memory CD8S functionality was assessed 65 days later. (A) Representative dot plots of IFN secretion by memory CD8^+ T cells isolated from spleens and lungs of vaccinated mice. Dot plots are gated on live CD8^+ cells, and numbers indicate the percentage of cells positive for both IFN and CD44. (B) Memory CD8^+ T-cell cytolytic activity was assessed by performing an in vivo cytotoxicity assay. Numbers reflect the percentage of antigen-specific lysis. (C,D) Quantification of relative and absolute numbers of memory CD8 cells expressing IFN in the spleen (C) and lung (D). Absolute numbers of positive cells were determined by multiplying the relative percentage of each cell population by the total number of cells isolated from each tissue. (E) Quantification of the in vivo cytotoxicity assay presented in panel B. P.001 by one-tailed ANOVA. […] Cells from panel F were analyzed for the ability to produce TNF and IL-2. […]
Mice were immunized with 100 μg each of V peptide, CD40, and S-27609 in combinations as indicated. Memory CD8 functionality was assessed 65 days later. […] (B) Memory CD8^+ T-cell cytolytic activity was assessed by performing an in vivo cytotoxicity assay. […] (E) Quantification of the in vivo cytotoxicity assay presented in panel B. P.001 by one-tailed ANOVA. […]

Series [2] is described as follows: Serum transaminase (ALT, AST) analysis of hepatocellular injury. Type of series: in vivo, mice. The conditions noted are these: 100 μg each i.v., 24 to 72 hours. On the procedure: (§1) FIG. 5 This figure contains experiments that reveal that the hepatic toxicity associated with CD40 monotherapy is reversed with TLR7 agonism. FIG. 5(A, B) contain kinetic analysis of serum transaminases. Mice were treated with PBS, 100 μg CD40, 100 μg TLR7*, or both intravenously. Serum was isolated at various time points afterward, and serum levels of alanine transaminase (A) or aspartate transaminase (B) were measured as described. Data are representative of 3 independent experiments, with n=3 to 8 mice per group, per time point. (C-F) Histologic analysis of livers treated with PBS (C), […] CD40 (D), 100 μg TLR7* (E), or 100 μg CD40 and 100 μg TLR7*(F) for 48 hours. (G) Semiquantitative assessment of histopathologic changes in livers from mice treated as above for 48 hours. […]
(§2) Hepatocellular injury was biochemically assessed by measuring serum liver enzyme activity. […] Serum was harvested 24 to 72 hours later and levels of alanine aminotransferase (ALT) and aspartate aminotransferase (AST) were determined by standard clinical assays at the National Jewish Medical Center Core Lab (Denver, Colo.). For histologic analysis, livers from mice treated as above were fixed in buffered formalin, embedded in paraffin, sectioned, and stained with hematoxylin and eosin (H&E) prior to being coded and scored on a 0 to 4 scale in a blinded fashion. […]

Series [3] can be described thus: Macroscopic and histologic analysis of livers (H&E, 0 to 4 score). The class given is in vivo, mice. On the procedure:
as §1, §2

A further series deals with B16.F10 melanoma cells. Nature of the series: Therapeutic vaccination against metastatic B16.F10 melanoma (lung metastases, survival).

Protocol for B16.F10 melanoma cells: Therein, C57BL/6 mice were challenged with 10^5 metastatic B16.F10 melanoma cells intravenously. Four days later, mice were vaccinated with 100 μg of the tumor-associated antigen V, 100 μg CD40 FGK45, and 100 μg S-27609 in combinations as indicated. After 24 days, mice were killed, lungs were removed, and metastatic surface tumor nodules were enumerated with the aid of a dissecting microscope.
Mice were injected with 10^5 B16.F10 melanoma tumor cells intravenously to establish lung metastases. Four days later, naive or tumor-bearing mice were intravenously vaccinated with 100 μg V peptide, 100 μg anti-CD40, and 100 μg of the TLR7 agonist S-27609 in various combinations as indicated. Lungs were harvested approximately 20 days later, and metastases were enumerated with the aid of a dissection microscope. Alternatively, mice were monitored for survival over the next 90 days.
C57BL/6 mice were challenged with 10^5 metastatic B16.F10 melanoma cells intravenously. Four days later, mice were vaccinated with 100 μg of the tumor-associated antigen V, 100 μg CD40 FGK45, and 100 μg S-27609 in combinations as indicated. After 24 days, mice were killed, lungs were removed, and metastatic surface tumor nodules were enumerated with the aid of a dissecting microscope.

Take `Cc1nc2c(N)nc3ccccc3c2n1CC(C)(C)O` [TLR7*]: the “CD8^+ cells expressing CD107a (degranulation after peptide restimulation)” value in series [1] is given as “approximately 2%”. For the same compound, the “persisting antigen-specific CD8^+ effector population” value with memory CD8^+ T cells is recorded as “failed to induce a significant pool”. For the same compound, in series [2], the “plasma levels of ALT and AST” value is “no effect on enzyme levels”. Besides, the “histologic analysis of liver” value in series [3] (48 hours after 100 μg each i.v.) is “minor inflammation without any observable coagulative necrosis”. The “semiquantitative score of histologic liver damage” value in series [3] (48 hours, P=0.026, TLR7* added to CD40) is “significantly reduces liver toxicity associated with CD40 monotherapy”.
As for SIYDFFVWL [tumor antigen], the “control of tumor progression (number of lung tumor nodules)” value in the series with B16.F10 melanoma cells (10^5 B16.F10 i.v., treatment 4 days later, lungs at 24 days) was “ineffective in controlling tumor progression”. The same compound gave a mean survival time with B16.F10 melanoma cells (all mice succumbed to lung failure) of 29 days.
